Measured values taken from US10131679B2, “Substituted dihydropyrrolopyrazole compound” (UBE INDUSTRIES, LTD., priority 2014, dated 2018).

How the values were obtained:
[1] = tested on: mouse imiquimod-induced psoriasis model; assay: Ear thickening suppression test using mouse imiquimod-induced psoriasis model; format: in vivo; conditions: topical, 120 h, thickness measured on day 5, BALB/c mice, read-out: rate of inhibition of increase in right auricle thickness; for inhibition in vivo at 0.01 %: application of a 0.01% methanol solution for 4 days; for inhibition in vivo at 1 %: application of a 1% solution in methanol for 4 days
Procedure: Ear Thickening Suppression Test Using Mouse Imiquimod-Induced Psoriasis Model
An imiquimod-induced psoriasis model test was carried out by modifying the method of Leslie van der Fits et al. (J. Immunol. 182, 5836 (2009)). BALB/c mice were used (female, supplied by Charles River Laboratories Japan, Inc.) as laboratory animals. On the start day of the test, the thicknesses of the right auricles of the mice were measured with a thickness gauge (model SMD-565J manufactured by TECLOCK Corp.). A test compound solution or only a solvent was applied or orally administered, and after 60 minutes, 5 mg of imiquimod (Beselna Cream 5% manufactured by Mochida Pharmaceutical Co., Ltd.) was applied to the insides of the right auricles. The test compound solution or solvent administration and the imiquimod application were carried out for 4 days, and the thicknesses of the right auricles were measured again on day 5. When increase in the thicknesses of the right auricles of the solvent-administered group on day 5 was defined as 100%, the rate of inhibition of increase (%) at each dose of the test compound was calculated.

CDK2 = target: T1, CDK2 (Homo sapiens, UniProt P24941); assay: CDK2 enzyme inhibition test; format: biochemical; conditions: Ki=IC50/(1+S/Km); 33P bound to MBP, [γ-33P]ATP, 30° C. for 20 minutes; read-out: Ki value of CDK2 inhibitory activity
T1 construct: purchased Invitrogen Corp. PV3267
Procedure: CDK2 Enzyme Inhibition Test
The preparation of a buffer solution was performed by mixing a HEPES buffer solution (pH 7.4), DTT, Triton X-100, and MgCl2. A 500 μM [γ-^33P]ATP solution was used by diluting a 10 mM ATP solution and a commercially available [γ-^33P]ATP solution (manufactured by PerkinElmer, Inc., Code No. NEG-302H) with the buffer solution. A CDK2 solution was used by diluting commercially available CDK2 (manufactured by Invitrogen Corp., Catalog No. PV3267) with the buffer solution. A substrate solution was used by diluting MBP with the buffer solution. As for the preparation of a reaction solution, the buffer solution, the 500 μM [γ-^33P]ATP solution, the CDK2 solution, and the substrate solution were mixed at 4° C. to obtain a reaction solution.
(§1) CDK2 enzyme reaction was performed by adding 5 μL of a test compound solution prepared with 10% DMSO/90% injectable distilled water, and 45 μL of the reaction solution in a 1.5 mL microtube at 4° C. and reacting in the microtube at 30° C. for 20 minutes in a water bath incubator. After the reaction, a 10% aqueous TCA solution was added to each microtube while cooled to 4° C., and mixed to terminate the reaction. The resultant was left standing at 4° C. for 10 minutes and then centrifuged in a centrifuge, and the supernatant was discarded. Next, a 2% aqueous TCA solution was added, mixed thereto, and then centrifuged in a centrifuge, and the supernatant was discarded. This washing operation was performed twice. After the washing, precipitates were dissolved in a 1 N aqueous NaOH solution, and the radioactivity was measured with a liquid scintillation counter.
The calculation of the inhibitory activity of the test compound against CDK2 was performed as a test compound concentration inhibiting 50% of the amount of ^33P bound to MBP (IC50 value) by using EXSUS (version 8.0.0 or version 8.0.1, manufactured by CAC Exicare Corp.).
(§2) The calculation of a Ki value was performed according to the following calculation expression. S means the concentration of ATP contained in the reaction solution, and Km means a Michaelis-Menten constant. Ki=IC50/(1+S/Km)

PAK4 = target: T2, PAK4 (Homo sapiens, UniProt O96013); assay: PAK4 enzyme inhibition test; format: biochemical; conditions: Ki=IC50/(1+S/Km); 33P bound to MBP, [γ-33P]ATP, 30° C. for 20 minutes; read-out: Ki value of PAK4 inhibitory activity
T2 construct: purchased Invitrogen Corp. PV4212
Procedure: PAK4 Enzyme Inhibition Test
The preparation of a buffer solution was performed by mixing a trishydroxyaminomethane buffer solution (Tris buffer solution) (pH 7.5), DTT, Triton X-100, MgCl2, ethylene glycol bis(β-aminoethyl ether)-N,N,N′,N′-tetraacetic acid (EGTA), (3-glycerol phosphate, and sodium orthovanadate(V). A 40 μM [γ-^33P]ATP solution was used by diluting a 10 mM ATP solution and a commercially available [γ-^33P]ATP solution (manufactured by PerkinElmer, Inc., Code No. NEG-302H) with the buffer solution. A PAK4 solution was used by diluting commercially available PAK4 (manufactured by Invitrogen Corp., Catalog No. PV4212) with the buffer solution. A substrate solution was used by diluting MBP with the buffer solution. As for the preparation of a reaction solution, the buffer solution, the 40 μM [γ-^33P]ATP solution, the PAK4 solution, and the substrate solution were mixed at 4° C. to obtain a reaction solution.
as §1, with “PAK4” for “CDK2”, “mixed,” for “mixed thereto,”
The calculation of the inhibitory activity of the test compound against PAK4 was performed as a test compound concentration inhibiting 50% of the amount of ^33P bound to MBP (IC50 value) by using EXSUS (version 8.0.0 or version 8.0.1, manufactured by CAC Exicare Corp.).
as §2

[2] = tested on: human large intestine cancer cell line (HCT-116); assay: Human large intestine cancer (HCT-116) cell growth inhibition test; format: cell-based; conditions: 72 h, HCT-116, culture for 3 days, sulforhodamine B absorbance
How it was run: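 HCT-116 cells seeded at 1.0×10^3 cells/well in McCoy's 5a with 10% FBS, then exposed to compound (0.1% DMSO final) for 3 days. Growth measured by sulforhodamine B absorbance; IC50 derived from concentration-inhibition data.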

CDK7 = target: T3, CDK7 (Homo sapiens, UniProt P50613); assay: CDK7 enzyme inhibition test; format: biochemical; conditions: Ki=IC50/(1+S/Km); 33P bound to MBP, [γ-33P]ATP, 30° C. for 20 minutes; read-out: Ki value of CDK7 inhibitory activity
T3 construct: purchased Carna Biosciences, Inc. 04-108
How it was run: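 Recombinant CDK7 with MBP substrate and [γ-33P]ATP (500 μM solution, diluted into the mix) in HEPES pH 7.4/DTT/Triton X-100/MgCl2, 20 min at 30 °C. TCA-precipitated 33P-MBP counted by scintillation; IC50 from inhibition, Ki = IC50/(1+S/Km).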

T3 sequence (P50613 whole entry): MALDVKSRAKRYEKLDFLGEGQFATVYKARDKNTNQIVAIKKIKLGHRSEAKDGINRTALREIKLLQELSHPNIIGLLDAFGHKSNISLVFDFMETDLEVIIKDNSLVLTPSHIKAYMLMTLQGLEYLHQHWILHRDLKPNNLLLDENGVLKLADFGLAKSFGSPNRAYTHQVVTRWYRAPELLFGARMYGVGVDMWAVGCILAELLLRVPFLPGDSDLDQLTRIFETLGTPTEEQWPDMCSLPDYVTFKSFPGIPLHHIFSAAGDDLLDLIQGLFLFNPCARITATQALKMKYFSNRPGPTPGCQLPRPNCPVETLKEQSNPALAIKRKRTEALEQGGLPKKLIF
T3 sequence (P51946 whole entry partner): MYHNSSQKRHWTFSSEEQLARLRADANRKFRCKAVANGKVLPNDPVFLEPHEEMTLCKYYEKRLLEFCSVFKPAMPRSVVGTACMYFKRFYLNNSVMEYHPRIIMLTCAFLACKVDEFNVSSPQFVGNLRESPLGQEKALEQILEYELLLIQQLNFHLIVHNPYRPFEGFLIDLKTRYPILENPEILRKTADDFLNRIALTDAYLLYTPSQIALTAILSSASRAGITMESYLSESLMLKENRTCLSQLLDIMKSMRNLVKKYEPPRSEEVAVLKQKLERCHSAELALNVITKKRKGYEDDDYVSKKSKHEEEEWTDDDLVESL
T3 sequence (P51948 whole entry partner): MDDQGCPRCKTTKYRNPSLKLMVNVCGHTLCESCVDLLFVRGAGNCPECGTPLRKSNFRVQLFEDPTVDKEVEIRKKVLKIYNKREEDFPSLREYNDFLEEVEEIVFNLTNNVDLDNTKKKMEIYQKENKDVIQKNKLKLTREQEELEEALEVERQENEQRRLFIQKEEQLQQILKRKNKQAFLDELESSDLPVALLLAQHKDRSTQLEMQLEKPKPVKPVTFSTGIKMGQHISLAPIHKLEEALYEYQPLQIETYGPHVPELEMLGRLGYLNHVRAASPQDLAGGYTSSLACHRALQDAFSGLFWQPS
T2 sequence (O96013 whole entry): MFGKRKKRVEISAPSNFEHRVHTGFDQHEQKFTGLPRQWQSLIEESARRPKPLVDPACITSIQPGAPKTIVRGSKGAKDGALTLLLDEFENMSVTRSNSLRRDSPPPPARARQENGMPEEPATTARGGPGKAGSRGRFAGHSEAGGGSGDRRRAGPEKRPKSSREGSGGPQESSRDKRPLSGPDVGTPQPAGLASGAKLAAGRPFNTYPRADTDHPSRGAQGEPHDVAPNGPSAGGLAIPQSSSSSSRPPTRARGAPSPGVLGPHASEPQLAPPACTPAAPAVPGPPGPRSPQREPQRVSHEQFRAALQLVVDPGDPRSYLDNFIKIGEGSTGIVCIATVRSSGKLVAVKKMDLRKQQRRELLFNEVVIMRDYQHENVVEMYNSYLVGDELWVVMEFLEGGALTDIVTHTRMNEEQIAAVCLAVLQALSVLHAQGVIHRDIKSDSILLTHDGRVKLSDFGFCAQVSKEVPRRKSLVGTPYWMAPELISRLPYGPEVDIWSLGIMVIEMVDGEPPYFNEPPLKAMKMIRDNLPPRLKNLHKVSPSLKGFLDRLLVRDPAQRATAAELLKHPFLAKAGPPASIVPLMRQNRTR

SMILES	inhibition in vivo at 1 % [1] [%]	further results
COCC(C)(C)C(NC(=O)N1Cc2c(NC(=O)C3([Si](C)(C)C)CCC3)n[nH]c2C1(C)C)c1ccccc1 (stereo not drawn) [IV-676, N-(3-Methoxy-2,2-dimethyl-1-phenylpropyl)-6,6-dimethyl-3-[1-(trimethylsilyl)cyclobutanecarboxamido]-4,6-dihydropyrrolo[3,4-c]pyrazole-5(1H)-carboxamide]	–	inhibition in vivo at 0.01 % [1]: ≥ 50%
CCCCO[C@@H](C(=O)N1Cc2c(NC(=O)C3([Si](C)(C)C)CCC3)n[nH]c2C1(C)C)c1ccccc1 [IV-1200, (R)—N-[5-(2-Butoxy-2-phenylacetyl)-6,6-dimethyl-1,4,5,6-tetrahydropyrrolo[3,4-c]pyrazol-3-yl]-1-(trimethylsilyl)cyclobutanecarboxamide]	–	inhibition in vivo at 0.01 % [1]: ≥ 50%
C[C@@H](Oc1ccccc1)C(=O)N1Cc2c(NC(=O)C3([Si](C)(C)C)CCC3)n[nH]c2C1(C)C [IV-1258, (R)—N-[6,6-Dimethyl-5-(2-phenoxypropanoyl)-1,4,5,6-tetrahydropyrrolo[3,4-c]pyrazol-3-yl]-1-(trimethylsilyl)cyclobutanecarboxamide]	–	Ki (CDK2): ≥ 1000 nM; Ki (PAK4): ≥ 500 nM; IC50 [2]: ≤ 500 nM; Ki (CDK7): ≤ 50 nM
CC(=O)OC[C@@H](NC(=O)N1Cc2c(NC(=O)C3([Si](C)(C)C)CCC3)n[nH]c2C1(C)C)c1ccccc1 [V-1442, (S)-2-{6,6-Dimethyl-3-[1-(trimethylsilyl)cyclobutanecarboxamido]-1,4,5,6-tetrahydropyrrolo[3,4-c]pyrazole-5-carboxamido}-2-phenylethyl acetate]	≥ 50	–
CCC(=O)OC[C@@H](NC(=O)N1Cc2c(NC(=O)C3([Si](C)(C)C)CCC3)n[nH]c2C1(C)C)c1ccccc1 [V-1446, (S)-2-{6,6-Dimethyl-3-[1-(trimethylsilyl)cyclobutanecarboxamido]-1,4,5,6-tetrahydropyrrolo[3,4-c]pyrazole-5-carboxamido}-2-phenylethyl propionate]	≥ 50	–
CC(C)C(=O)OC[C@@H](NC(=O)N1Cc2c(NC(=O)C3([Si](C)(C)C)CCC3)n[nH]c2C1(C)C)c1ccccc1 [V-1454, (S)-2-{6,6-Dimethyl-3-[1-(trimethylsilyl)cyclobutanecarboxamido]-1,4,5,6-tetrahydropyrrolo[3,4-c]pyrazole-5-carboxamido}-2-phenylethyl isobutanoate]	≥ 50	–
CC(C)(C)C(=O)OC[C@@H](NC(=O)N1Cc2c(NC(=O)C3([Si](C)(C)C)CCC3)n[nH]c2C1(C)C)c1ccccc1 [V-1462, (S)-2-{6,6-Dimethyl-3-[1-(trimethylsilyl)cyclobutanecarboxamido]-1,4,5,6-tetrahydropyrrolo[3,4-c]pyrazole-5-carboxamido}-2-phenylethyl pivalate]	≥ 50	–
CCCCCCCC(=O)OC[C@@H](NC(=O)N1Cc2c(NC(=O)C3([Si](C)(C)C)CCC3)n[nH]c2C1(C)C)c1ccccc1 [V-1470, (S)-2-{6,6-Dimethyl-3-[1-(trimethylsilyl)cyclobutanecarboxamido]-1,4,5,6-tetrahydropyrrolo[3,4-c]pyrazole-5-carboxamido}-2-phenylethyl octanoate]	≥ 50	–
CCCCCCCCCCCC(=O)OC[C@@H](NC(=O)N1Cc2c(NC(=O)C3([Si](C)(C)C)CCC3)n[nH]c2C1(C)C)c1ccccc1 [V-1474, (S)-2-{6,6-Dimethyl-3-[1-(trimethylsilyl)cyclobutanecarboxamido]-1,4,5,6-tetrahydropyrrolo[3,4-c]pyrazole-5-carboxamido}-2-phenylethyl dodecanoate]	≥ 50	–
